# Earlier results as cited in US7223414B1, “Silica-calcium phosphate bioactive composite for improved synthetic graft resorbability and tissue regeneration” (priority 2002, dated 2007).
# Where a name gives a salt, the structure may show the parent alone.
# Test system: Staphylococcus aureus
structure (smiles),measurement,value
"CN[C@H](CC(C)C)C(=O)N[C@H]1C(=O)N[C@@H](CC(N)=O)C(=O)N[C@H]2C(=O)N[C@H]3C(=O)N[C@H](C(=O)N[C@H](C(=O)O)c4cc(O)cc(O)c4-c4cc3ccc4O)[C@H](O)c3ccc(c(Cl)c3)Oc3cc2cc(c3O[C@@H]2O[C@H](CO)[C@@H](O)[C@H](O)[C@H]2O[C@H]2C[C@](C)(N)[C@H](O)[C@H](C)O2)Oc2ccc(cc2Cl)[C@H]1O [vancomycin hydrochloride, Vancomycin hydrochloride]",breakpoint sensitivity,5 mg/L
same,minimum bactericidal concentrations,2.34 µg/mL
same,minimum inhibitory concentration,1.18 µg/mL
